Measured values from publication PMC11407758, “Integrated stress response (ISR) activation and apoptosis through HRI kinase by PG3 and other p53 pathway-restoring cancer therapeutics” (Oncotarget, 2024).

Assays:
[1] = test system: HT29 (R273H); assay: Cell viability assay (CellTiterGlo), HT29; format: cell-based, human; details: Homo sapiens, HT-29; 72 h, CellTiterGlo
Procedure: (§1) Figure 1 PG3 inhibits cell proliferation and growth in a p53-indepent manner. (A–E) Cell viability assay, dose response curves and IC50 value measurements in a panel of cancer cell lines and normal cells. Cells were treated with different concentrations of PG3, PG3-Oc (Oc), obatoclax (Ob), prodigiosin (P) or DMSO for 72 h. Luciferase activity was imaged by the IVIS Imaging System after treatment. Cell viability data were normalized to those of DMSO treatment control in each cell line and data analyses were performed using PRISM4 software. IC50 data are expressed as the mean ±SD (normal; n = 3).
as §1, with “2 p53-dependent inhibition of” for “1 PG3 inhibits”, “is only observed at specific concentrations. (A–J)” for “and growth in a p53-indepent manner. (A–E)”, “ZMC1, CP-313908, APR-246, Ellipticine, Nutalin-3a” for “PG3, PG3-Oc (Oc), obatoclax (Ob), prodigiosin (P)”
(§2) Cells were seeded in 96-well plates (6 × 10^3 cells/well). Cells were treated with different concentrations of compounds or dimethyl sulfoxide (DMSO) as a control for 72 hours. The cell viability was assessed by CellTiterGlo bioluminescent cell viability assay (Promega), following the manufacturer’s protocol. Bioluminescence imaging was measured using the IVIS imager. The percentage of cell viability (mean ± SEM) at each dose was calculated against the respective DMSO control. The IC50 values were determined from the sigmoidal dose-response curves using GraphPad Prism.

[2] = test system: TOV-112D (R175H); assay: Cell viability assay (CellTiterGlo), TOV-112D; format: cell-based, human; details: Homo sapiens, TOV112D; 72 h, CellTiterGlo; read-out: IC50 values, TOV-1120 (R175H) (converted)
Procedure: as §1
as §1, with “2 p53-dependent inhibition of” for “1 PG3 inhibits”, “is only observed at specific concentrations. (A–J)” for “and growth in a p53-indepent manner. (A–E)”, “ZMC1, CP-313908, APR-246, Ellipticine, Nutalin-3a” for “PG3, PG3-Oc (Oc), obatoclax (Ob), prodigiosin (P)”
as §2

[3] = test system: HCT116 (P53−/−); assay: Cell viability assay (CellTiterGlo), HCT116 p53-/-; format: cell-based, human; details: Homo sapiens, HCT-116; 72 h, CellTiterGlo
Procedure: as §1
as §1, with “2 p53-dependent inhibition of” for “1 PG3 inhibits”, “is only observed at specific concentrations. (A–J)” for “and growth in a p53-indepent manner. (A–E)”, “ZMC1, CP-313908, APR-246, Ellipticine, Nutalin-3a” for “PG3, PG3-Oc (Oc), obatoclax (Ob), prodigiosin (P)”
as §2

[4] = test system: HCT116 (WT); assay: Cell viability assay (CellTiterGlo), HCT116 WT; format: cell-based, human; details: Homo sapiens, HCT-116; 72 h, CellTiterGlo
Procedure: as §1
as §1, with “2 p53-dependent inhibition of” for “1 PG3 inhibits”, “is only observed at specific concentrations. (A–J)” for “and growth in a p53-indepent manner. (A–E)”, “ZMC1, CP-313908, APR-246, Ellipticine, Nutalin-3a” for “PG3, PG3-Oc (Oc), obatoclax (Ob), prodigiosin (P)”
as §2

[5] = test system: HCT116 (R175H); assay: Cell viability assay (CellTiterGlo), HCT116 R175H; format: cell-based, human; details: Homo sapiens, HCT-116; 72 h, CellTiterGlo
Procedure: as §1
as §1, with “2 p53-dependent inhibition of” for “1 PG3 inhibits”, “is only observed at specific concentrations. (A–J)” for “and growth in a p53-indepent manner. (A–E)”, “ZMC1, CP-313908, APR-246, Ellipticine, Nutalin-3a” for “PG3, PG3-Oc (Oc), obatoclax (Ob), prodigiosin (P)”
as §2

[6] = test system: HFF-1 (human foreskin fibroblast cell with wild-type p53); assay: Cell viability assay (CellTiterGlo), HFF-1 normal cells; format: cell-based; details: Homo sapiens, HFF-1; 72 h, CellTiterGlo, normal cells; read-out: IC50 values, HFF-l (WT)
Procedure: as §1
as §1, with “2 p53-dependent inhibition of” for “1 PG3 inhibits”, “is only observed at specific concentrations. (A–J)” for “and growth in a p53-indepent manner. (A–E)”, “ZMC1, CP-313908, APR-246, Ellipticine, Nutalin-3a” for “PG3, PG3-Oc (Oc), obatoclax (Ob), prodigiosin (P)”
as §2

[7] = test system: MRC5 (human lung fibroblast cell with wild-type p53); assay: Cell viability assay (CellTiterGlo), MRC5 normal cells; format: cell-based; details: Homo sapiens, MRC5, 72 h, read-out: IC50 values, MRC5 (WT)
Procedure: as §1
as §1, with “2 p53-dependent inhibition of” for “1 PG3 inhibits”, “is only observed at specific concentrations. (A–J)” for “and growth in a p53-indepent manner. (A–E)”, “ZMC1, CP-313908, APR-246, Ellipticine, Nutalin-3a” for “PG3, PG3-Oc (Oc), obatoclax (Ob), prodigiosin (P)”
as §2

[8] = test system: HT29, TOV-112D, isogenic HCT116 cell lines, HFF-1 and MRC5; assay: Cell viability assay, panel of cancer cell lines and normal cells (results in words); format: cell-based, human; details: 10 μM; all cell lines tested and normal cells
Procedure: as §1, with “2 p53-dependent inhibition of” for “1 PG3 inhibits”, “is only observed at specific concentrations. (A–J)” for “and growth in a p53-indepent manner. (A–E)”, “ZMC1, CP-313908, APR-246, Ellipticine, Nutalin-3a” for “PG3, PG3-Oc (Oc), obatoclax (Ob), prodigiosin (P)”
as §2

[9] = test system: HCT116 (wild-type), SW480 (R273H, P309S), and DLD1 (S241F); assay: Cell viability assay in colorectal cancer cell lines (Figure 1E); format: cell-based, human; details: 72 h
Procedure: as §1, §2

[10] = test system: SW480 cells carrying a p53-responsive luciferase reporter; assay: p53-responsive reporter assay; format: cell-based, human
Procedure: SW480 cells carrying a p53-responsive luciferase reporter were used for assay of functional restoration of mutant p53. Cells were seeded in 96-well plates (5 × 10^4 cells/well) and were treated with compounds indicated for 6 and 15 h, respectively. Then, D-luciferin was added to each well with final concentration 100 μg/mL, and cells were imaged by using an IVIS Imaging System to detect luciferase activity.
p53-mutant SW480 human colon cancer cells, stably expressing a p53-responsive luciferase reporter, were used to assay functional restoration p53 pathway-dependent transcription in mutant p53-expressing tumor cells. Cells were seeded in 96-well plates (5 × 10^4 cells/well) and were treated with small-molecule compounds for 6 and 15 h, respectively. Then, D-luciferin was added to each well at a final concentration of 100 μg/mL, and cells were imaged by using an IVIS Imaging System (Xenogen) to detect luciferase activity.

[11] = test system: ATF4; assay: Western blot, ATF4 induction; format: cell-based, human; details: five cancer cell lines, 24 h
Procedure: (§3) Figure 4 Activation of ATF4 and up-regulation of typical p53 target genes. (A–E) Western blot analysis of p53 protein levels and upregulation of ATF4, PUMA, DR5 and p21. Cells were treated for 24 h with indicated compounds, concentrations and cell lines. Abbreviations: S.E.: Short exposure; L.E.: Long exposure.
(§4) After treatment, protein lysates were collected for Western blot analysis. A total of 15 μg of protein was used for SDS-PAGE. After primary and secondary antibody incubations, the signal was detected by a chemiluminescence detection kit, imaged by Syngene (Imgen Technologies). Antibodies for NAG-1 (GDF15) and P53 were from Santa Cruz Biotechnology; for caspase 8, cleaved caspase 8, caspase 9, caspase 3, cleavage PARP, eIF2α, p-eIF2α (Ser51), CHOP, ATF4, DR5, and PUMA were from Cell Signaling Technology. Noxa and p21 were from Calbiochem. Ran was from BD Biosciences.

[12] = test system: p53 protein; assay: Western blot, p53 protein levels; format: cell-based, human
Procedure: Cells were treated for 24 h with indicated compounds, concentrations and cell lines. Abbreviations: S.E.: Short exposure; L.E.: Long exposure.
as §4

[13] = test system: DR5; assay: Western blot, DR5 induction; format: cell-based, human; details: five cell lines, 24 h
Procedure: as §3, §4

[14] = test system: PUMA; assay: Western blot, PUMA induction; format: cell-based, human; details: five cell lines, 24 h
Procedure: as §3, §4

[15] = test system: p21; assay: Western blot, p21 induction; format: cell-based, human; details: five cell lines, 24 h
Procedure: as §3, §4

[16] = cited from earlier work

CCCCCCCCOC(=O)CCc1c(C)[nH]c(/C=C2\N=C(c3ccc[nH]3)C=C2OC)c1C [PG3-Oc]
IC50 [1]: 31 nM | IC50 [2]: 38 nM | IC50 [3]: 62 nM | IC50 [4]: 47 nM | IC50 [5]: 52 nM | IC50 [6]: 306 nM | IC50 [7]: 78 nM | toxicity at 10 μM [8]: too toxic | potency compared among PG3-Oc, prodigiosin and Obatoclax [9]: same potency | p53-responsive reporter activity ([10]; 1.11 μM, 6 hour and 15 hour time points): do not activate reporter activity | p53-responsive reporter activity ([10]; 10 μM, 6 hours): activation | upregulation of ATF4 [11]: induce upregulation of ATF4 | wild-type p53 protein level ([12]; HCT116, 24 h): do not upregulate expression | endogenous mutant p53 R273H protein level ([12]; HT29, 24 h): no effects on stability | endogenous mutant p53 R175H protein level ([12]; TOV-112D, 24 h): no effects on stability | exogenous mutant p53 R175H protein level ([12]; engineered HCT116-R175H cells, 24 h): stabilize | upregulation of DR5 [13]: consistently induce upregulation | upregulation of PUMA [14]: consistently induce upregulation | upregulation of p21 [15]: consistently induce upregulation | stability in vivo [16]: unstable in vivo
